From PubChem BioAssay (NCI)
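Step 1: Grow cells in 96-well plates. Step 2: Expose to compound for 48 hours at 5 concentrations. Step 3: Interpolate endpoints linearly; if unreached, use highest concentration. GI50 marks 50% less growth. At the TGI there is no net growth.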

Experiments:
Assay in all cases: NCI anticancer screen, dose series, 48 h
[1] = system: UO-31 renal
[2] = system: SK-MEL-28 melanoma
[3] = system: HCC-2998 colon
[4] = system: HCT-116 colon
[5] = system: OVCAR-3 ovarian
[6] = system: LOX IMVI melanoma
[7] = system: SN12C renal
[8] = system: MALME-3M melanoma
[9] = system: NCI-H460 lung
[10] = system: SF-539 CNS

With `CCOC(=O)c1c(Cl)c2c(n1Cc1cc(OC)cc(OC)c1)-c1oncc1CCC2` the GI50 [1] was 1.04 µM, the TGI [1] was over 100 µM and the GI50 [2] was 0.554 µM. It also gave a TGI [2] of over 100 µM, a GI50 [3] of 15.4 µM and a TGI [3] of over 100 µM. It also gave a GI50 [4] of 0.432 µM, a TGI [4] of over 100 µM and a GI50 [5] of 0.253 µM. The TGI [5] was 2.51 µM, the GI50 [6] was 0.709 µM and the TGI [6] was over 100 µM. It also gave a GI50 [7] of 0.77 µM, a TGI [7] of over 100 µM and a GI50 [8] of 0.118 µM. It also gave a GI50 [9] of 0.375 µM and a TGI [9] of over 100 µM.

For `CN(CCC(=O)O)S(=O)(=O)c1ccccc1`, the TGI [10] was over 100 µM, the TGI [1] was over 100 µM and the TGI [2] was over 100 µM. The TGI [4] was over 100 µM, the TGI [5] was over 100 µM and the TGI [6] was over 100 µM. The TGI [7] was over 100 µM, the TGI [8] was over 100 µM and the TGI [9] was over 100 µM.

For `CN1CCN(Cc2ccc(Nc3ncc(Cl)c(Nc4ccccc4S(=O)(=O)N(C)C)n3)cc2)CC1`, the GI50 [10] was 0.114 µM, the TGI [10] was 0.343 µM and the GI50 [1] was 0.0387 µM. The TGI [1] was 1.4 µM, the GI50 [2] was 0.0497 µM and the TGI [2] was 0.415 µM. For the same compound, the GI50 [4] was under 0.0157 µM, the GI50 [5] was 0.061 µM and the TGI [5] was over 100 µM. For the same compound, the GI50 [6] was under 0.0143 µM, the TGI [6] was 0.124 µM and the GI50 [7] was 0.0399 µM. For the same compound, the TGI [7] was 1.23 µM, the GI50 [8] was 0.092 µM and the TGI [8] was 0.379 µM. For the same compound, the GI50 [9] was under 0.0131 µM and the TGI [9] was 0.198 µM.

`CN=S(=O)(C[C@]1(O)CC2OC1C1OC(C)(C)OC21)c1ccccc1` (some centres not stated) showed a TGI [10] of over 100 µM, a TGI [2] of over 100 µM and a TGI [3] of over 100 µM. For the same compound, the TGI [4] was over 100 µM, the TGI [5] was over 100 µM and the TGI [7] was over 100 µM. It also gave a TGI [8] of over 100 µM and a TGI [9] of over 100 µM.

`Cc1cc(C)nc(SC2=C(Nc3cccc(Cl)c3)C(=O)N(Cc3ccccc3)C2=O)n1` gave a GI50 [10] of over 170 µM, a TGI [10] of over 170 µM and a GI50 [1] of over 170 µM. For the same compound, the TGI [1] was over 170 µM, the GI50 [2] was over 170 µM and the TGI [2] was over 170 µM. It also gave a GI50 [3] of over 170 µM, a TGI [3] of over 170 µM and a GI50 [4] of over 170 µM. It also gave a TGI [4] of over 170 µM, a GI50 [5] of over 170 µM and a TGI [5] of over 170 µM. The GI50 [6] was over 170 µM, the TGI [6] was over 170 µM and the GI50 [8] was over 170 µM. For the same compound, the TGI [8] was over 170 µM, the GI50 [9] was over 170 µM and the TGI [9] was over 170 µM.

With `COc1cc(-c2c(C)c(C)nc(OC)c2C#N)cc(OC)c1OC` the TGI [10] was over 100 µM, the TGI [1] was over 100 µM and the TGI [2] was over 100 µM. For the same compound, the TGI [3] was over 100 µM, the TGI [4] was over 100 µM and the TGI [5] was over 100 µM. The TGI [7] was over 100 µM, the TGI [8] was over 100 µM and the TGI [9] was over 100 µM.

`O=C(CC1(O)C(=O)Nc2c(Cl)cc(Cl)cc21)c1ccc2ccccc2c1` (configuration not stated) gave a TGI [10] of 21 µM, a TGI [1] of 24.5 µM and a TGI [2] of 24.3 µM. The TGI [4] was 13.4 µM, the TGI [5] was 18.6 µM and the TGI [6] was 24.3 µM. The TGI [7] was 22.9 µM, the TGI [8] was 19.7 µM and the TGI [9] was 18.1 µM.

With `Cc1cc(C)n(-c2c(O)ccc(O)c2-n2nc(C)cc2C)n1` the TGI [10] was over 100 µM, the TGI [1] was over 100 µM and the TGI [2] was over 100 µM. For the same compound, the TGI [3] was over 100 µM, the TGI [5] was over 100 µM and the TGI [6] was over 100 µM. For the same compound, the TGI [7] was over 100 µM, the TGI [8] was over 100 µM and the TGI [9] was over 100 µM.

`Clc1ccc2nc(CCSCCc3nc4ccc(Cl)cc4[nH]3)[nH]c2c1` showed a TGI [10] of 32.7 µM, a TGI [1] of 24.7 µM and a TGI [3] of 31.7 µM. It also gave a TGI [4] of 19.3 µM, a TGI [6] of 40.4 µM and a TGI [7] of 30.3 µM. It also gave a TGI [9] of 31.7 µM.

In the case of `O=C(NCC#CCO)C(F)(F)F`, the TGI [10] is reported as over 100 µM, the TGI [1] is reported as over 100 µM and the TGI [2] is reported as over 100 µM. It also gave a TGI [3] of over 100 µM, a TGI [4] of over 100 µM and a TGI [6] of over 100 µM. It also gave a TGI [7] of over 100 µM, a TGI [8] of over 100 µM and a TGI [9] of over 100 µM.
